Values quoted from earlier work in patent EP0423943A2, “Use of collagenase inhibitors in the treatment of demyelinating diseases, in particular multiple sclerosis” (Beecham Group p.l.c., priority 1989, dated 1991).

Test system: metalloprotease acting at neutral pH identified as a component of myelin membranes
Settings: myelin membrane metalloprotease, literature statement

Structure (SMILES) | inhibition of the enzyme
CC(C)C[C@H](NP(=O)(O)O[C@@H]1O[C@@H](C)[C@H](O)[C@@H](O)[C@H]1O)C(=O)N[C@@H](Cc1c[nH]c2ccccc12)C(=O)O [phosphoramidon] | not
c1cnc2c(c1)ccc1cccnc12 [1,10-phenanthroline] | inhibited
